Test results taken from US20230078089A1, “Regulating Activation of Fibroblasts to Prevent Fibrosis” (THE J. DAVID GLADSTONE INSTITUTES, A TESTAMENTARY TRUST …, priority 2020, published 2023).

Columns and labels:
[1] = test system: isolated adult CMs; assay: bulk RNA-Seq of isolated adult cardiomyocytes from TAC mice; type: in vivo, mouse
Method: Cell isolation from mouse hearts was performed as described by Li et al. (J. Vis. Exp. (2014)) with modifications. Briefly, after proper anesthesia level was reached, thoracotomy was performed, and mouse heart was isolated. The isolated heart was cannulated and perfused with perfusion buffer (120.4 mM NaCl, 14.7 mM KCl, 0.6 mM KH2PO4, 0.6 mM Na2HPO4, 1.2 mM MgSO4, 10 mM Na-HEPES, 4.6 mM NaHCO3, 30 mM taurine, 10 mM 2,3-butanedione monoxime, and 5.5 mM glucose, pH 7.0) in a Langendorff perfusion system (Radnoti 120108EZ) for 5-10 minutes at 37° C. The cannulated heart was then digested by digestion buffer (perfusion buffer with 300 units/mL collagenase II (Worthington Biochemical) and 50 μM CaCl2)) for about 10 min at 37° C. […] 30 k cells were counted with trypan blue using a hemocytometer and then used for subsequent 10× Genomics Chromium single cell RNAseq preparation. […] Nuclei were then counted with DAPI using a hemocytometer and finally 30 k non-CM nuclei used for subsequent 10× Genomics Chromium single cell ATACseq preparation. […]
Total RNA from CMs was extracted using miRNeasy kit (Qiagen) according to the manufacturer's instructions and quantified with Nanodrop (Thermo scientific). […] Reads were mapped to the mm10 reference mouse genome using STAR (v 2.7.3a) and assigned to Ensembl genes. […]

[2] = test system: non-CM compartment of mouse hearts; assay: single cell RNA sequencing of non-CM heart cells from TAC mice; type: in vivo
Method: (§1) Cell isolation from mouse hearts was performed as described by Li et al. (J. Vis. Exp. (2014)) with modifications. Briefly, after proper anesthesia level was reached, thoracotomy was performed, and mouse heart was isolated. The isolated heart was cannulated and perfused with perfusion buffer (120.4 mM NaCl, 14.7 mM KCl, 0.6 mM KH2PO4, 0.6 mM Na2HPO4, 1.2 mM MgSO4, 10 mM Na-HEPES, 4.6 mM NaHCO3, 30 mM taurine, 10 mM 2,3-butanedione monoxime, and 5.5 mM glucose, pH 7.0) in a Langendorff perfusion system (Radnoti 120108EZ) for 5-10 minutes at 37° C. The cannulated heart was then digested by digestion buffer (perfusion buffer with 300 units/mL collagenase II (Worthington Biochemical) and 50 μM CaCl2)) for about 10 min at 37° C. At the end of digestion, the atria and great vessels were removed, and the ventricular tissue was transferred to and gently teased into small pieces in stop buffer (perfusion buffer with 10% fetal bovine serum) at 37° C. After gently pipetting, cell suspension was passed through a 250 uM strainer in a falcon tube and then at 30×g for 3 minutes at room temperature (RT). Then, the supernatant—containing most of the non-cardiomyocytes (CMs)—was divided from the pellet (containing the CM fraction). The non-CM fraction was centrifuged again at 30×g for 3 minutes at RT and the supernatant kept. The supernatant was then filtered with a cell strainer (70 um) and finally centrifuged at 400×g for 3 minutes at RT for eliminating debris. The non-CM pellet was finally resuspended in 1 mL cold PBS 0.5% BSA. 30 k cells were counted with trypan blue using a hemocytometer and then used for subsequent 10× Genomics Chromium single cell RNAseq preparation. For single cell ATAC, 500 k isolated and purified non-CMs were resuspended in […] lysis buffer (Tris-HCl 10 mM pH 7.4, NaCl 10 mM, MgCl2 3 mM, Tween-20 0.1%, P40 0.1%, Digitonin 0.01%, BSA 1% in Nuclease-free water), pipetted 10 times and kept on ice for 5 minutes. Nuclei were then washed 1 mL 1× PBS with 1% BSA and then […] at 4° C. The nuclei pellet was resuspended in 1 mL 1× PBS with 1% BSA and filtered with a 10 uM strainer (pluriSelect #43-50010-00). Nuclei were then counted with DAPI using a hemocytometer and finally 30 k non-CM nuclei used for subsequent 10× Genomics Chromium single cell ATACseq preparation. The CM-fraction was, after the first centrifugation, centrifugated again at 30×g for 3 minutes at RT in stopping buffer and the supernatant was discarded. The CM pellet was finally centrifuged at 400×g for 3 minutes in stopping buffer at RT and after discarding the supernatant, the cell pellet was lysed in Qiazol (miRNeasy kit—Qiagen) for subsequent RNA extraction.
Single-cell droplet libraries from the non-CM cell suspension (2× Sham, 2× TAC-Veh, 2× TAC-JQ1 and 2× TAC-JQ1 withdrawn) (FIG. 2C) were generated in the 10× Genomics Chromium controller according to the manufacturer's instructions in the Chromium Single Cell 3′ Reagent Kit v.2 User Guide. Additional components used for library preparation include the Chromium Single Cell 3′ Library and Gel Bead Kit v.2 (PN-120237) and the Chromium Single Cell 3′ Chip kit v.2 (PN-120236). Libraries were prepared according to the manufacturer's instructions using the Chromium Single Cell 3′ Library and Gel Bead Kit v.2(PN-120237) and Chromium 7 Multiplex Kit (PN-120262). Final libraries were sequenced on the NextSeq 500 (Illumina) for a quality control run and then on the NovaSeq (Illumina) for deeper sequencing. All the 8 samples were pooled and sequenced in one single lane. Sequencing parameters were selected according to the Chromium Single Cell v.2 specifications. All libraries were sequenced to a mean read depth of at least 50,000 total aligned reads per cell. Raw sequencing reads were processed using the Cell Ranger v.2.2.0 pipeline from 10× Genomics. […]

[3] = test system: distal elements (incl. Meox1 enhancer) in fibroblasts, myeloid and endothelial cells; assay: single cell ATAC sequencing of non-CM heart nuclei from TAC mice, chromatin accessibility of distal elements; type: in vivo, mouse
Method: as §1
After successful nuclei isolation, nuclei were then processed according to the 10× Genomics Single Cell ATAC kit v1.0 (PN-1000110) by first incubating with Tn5 Transposase for 1 hour, followed by GEM generation and barcode amplification using the 10× Genomics Chromium controller according to the manufacturer's instructions. Additional components used for library preparation include the Chromium Chip E Single Cell ATAC kit (PN-1000082) and Chromium i7 Multiplex Kit N, Set A primers (PN-1000084). Final libraries were sequenced on the NextSeq 500 (Illumina) for a quality control run and then on the NovaSeq (Illumina) for deeper sequencing. All the 8 samples (2× Sham, 2× TAC-Veh, 2× TAC-JQ1 and 2× TAC-JQ1 withdrawn) (FIG. 2C) were pooled and sequenced in one NovaSeq single lane. Sequencing parameters were selected according to the Chromium Single Cell ATAC v1.0 specifications. All libraries were sequenced to a median read depth of at least 2,500 fragments/nuclei. Raw sequencing reads were processed using the Cell Ranger ATAC v1.0 pipeline from 10× Genomics. In brief, reads were demultiplexed and aligned to the mouse mm10 genome. As a test of sample quality, a minimum of 70% of fragments overlapped targeted regions as defined by CellRanger. […]

[4] = test system: Meox1 expression; assay: Meox1 expression by qPCR in TGF-β-treated cultured cardiac fibroblasts; type: cell-based, mouse; details: TGF-β1 10 ng/ml, JQ1 500 nM
Method: JQ1 was synthesized and purified in the laboratory of Jun Qi (Dana-Farber Cancer Institute), as described by Filippakopoulos et al. (Nature 468, 1067-1073 (2010)). For in vivo experiments, a stock solution [50 mg/ml JQ1 in dimethyl sulfoxide (DMSO)] was diluted to a working concentration of 5 mg/ml in an aqueous carrier (10% hydroxypropyl b-cyclodextrin; Sigma C0926) using vigorous vortexing. Mice were injected at a dose of 50 mg/kg given intraperitoneally once daily. Vehicle control was an equal amount of DMSO dissolved in 10% hydroxypropyl b-cyclodextrin carrier solution. All solutions were prepared and administered using sterile technique. For in vitro experiments, JQ1 was dissolved in DMSO and administered to cells at 500 nM final concentration using an equal volume of DMSO as control.
A Tcf21MCM mouse (Acharya et al., Genesis 49, 870-877 (2011)) was crossed with a Rosa26-Ai6 mouse (Jackson Laboratory stock #007906) to generate a Tcf21^MCM/+; Rosa26^Ai6/+ mouse. At 10 weeks of age, intraperitoneal injection of Tamoxifen (75 mg tamoxifen/kg) was done for 5 days (once a day). […] As primary cells only undergo a pre-determined and finite number of cell divisions in culture, and then enter a state of replicative senescence, the inventors employed a widely used method for immortalizing mammalian cells in culture based on Simian virus 40 (SV40) T antigen expression. […]
Quantitative RT-PCR. […]

[5] = test system: MEOX1 expression in human fibroblasts from lung; assay: MEOX1 expression by qPCR in TGFβ-treated human lung fibroblasts; type: cell-based; details: TGF-β1 10 ng/ml, JQ1 0.5 uM
Method: (§2) Human fibroblasts from lung (ATCC, #CRL-4058), liver (CELL APPLICATIONS INC, #712-05f) and kidney (Cell Biologics, #H-6016) were passaged and grown like the mouse cardiac fibroblasts (see “Generation of cardiac fibroblast immortalized cell line, culture condition and TGFβ stimulation” section for more details”). In brief, human fibroblasts were seeded at 1×10^5/well of 6 well plate at day 1. On day 2, the media was changed to the same basal media with 0.5% FBS. On the day 3, TGF-β1 (Peprotech #100-21C) was added into the media at a concentration of 10 ng/ml. JQ1 was added at a final concentration of 0.5 uM. Cells were collected on day 5 for RT-qPCR and gene expression analysis.

[6] = test system: MEOX1 expression in human fibroblasts from liver; assay: MEOX1 expression by qPCR in TGFβ-treated human liver fibroblasts; type: cell-based; details: TGF-β1 10 ng/ml, JQ1 0.5 uM
Method: as §2

[7] = test system: MEOX1 expression in human fibroblasts from kidney; assay: MEOX1 expression by qPCR in TGFβ-treated human kidney fibroblasts; type: cell-based; details: TGF-β1 10 ng/ml, JQ1 0.5 uM
Method: as §2

[8] = test system: BET family of bromodomain proteins; details: background description; cited from earlier work
[9] = test system: several rodent models of HF; details: background description; cited from earlier work

In the case of `Cc1sc2c(c1C)C(c1ccc(Cl)cc1)=NC(CC(=O)OC(C)(C)C)c1nnc(C)n1-2` (centres unmarked) [JQ1], the “overlap of CM transcriptome effects with transcriptomic signature of whole LV tissue” value [1] is reported as < 3%, the “effects on the transcriptome of isolated adult CMs” value ([1]; compared to published signature of whole LV tissue) is reported as “modest” and the “fibroblast cell state (scRNAseq clustering)” value ([2]; TAC JQ1-treated) is reported as “dramatic reversion of this cell state to one that closely approached the Sham state”. The “myofibroblast cell state (Postn marker)” value ([2]; TAC JQ1-treated) was “shifted the myoFB cell state back toward a Sham-like state”, the “Meox1 expression in MyoFBs (scRNAseq) after withdrawal” value ([2]; TAC JQ1 withdrawn) was “robust re-induction” and the “fibroblast cell state (scRNAseq clustering) after withdrawal” value ([2]; TAC JQ1 withdrawn) was “shift of the FB population back to a TAC-like stressed state”. For the same compound, the “myofibroblast cell state (Postn marker) after withdrawal” value ([2]; TAC JQ1 withdrawn) was “reverts these cells back to myoFBs”, the “Meox1 expression in MyoFBs (scRNAseq)” value ([2]; TAC, BET inhibition with JQ1) was “abolished” and the “transcriptome of endothelial and myeloid compartments” value ([2]; TAC, JQ1 exposure) was “dynamic transcriptomic shifts”. For the same compound, the “accessibility of fibroblast regions that opened from Sham to TAC (Cluster 9)” value ([3]; fibroblasts) was “insensitive”, the “sensitivity of the enhancer downstream of Meox1 to stress and JQ1 exposure” value ([3]; fibroblasts, but not myeloid and endothelial cells) was “extremely sensitive” and the “accessibility of the 10 peaks of the Meox1 enhancer” value ([3]; fibroblasts, JQ1 treatment) was “closed with JQ1 treatment back to a Sham level”. The “increase in chromatin accessibility after TAC in fibroblasts” value ([3]; fibroblasts, JQ1 treatment) was “reversibly attenuated”, the “accessibility of dynamic fibroblast distal elements (Cluster 2) after withdrawal” value ([3]; fibroblasts, JQ1 withdrawal) was “robustly re-accessible” and the “accessibility of the 10 peaks of the Meox1 enhancer after withdrawal” value ([3]; fibroblasts, JQ1 withdrawn) was “re-opened”. The “accessibility of dynamic fibroblast distal elements (Cluster 2)” value ([3]; fibroblasts, closed in Sham, opened in TAC, JQ1 treatment) was “closed by JQ1”, the “attenuation of chromatin accessibility after TAC in myeloid and endothelial cells” value ([3]; myeloid and endothelial cells, JQ1 treatment) was “less evident” and the “TGF-β-induced Meox1 upregulation” value [4] was “suppressed”. For the same compound, the “TGFβ-induced MEOX1 expression” value [5] was “suppressed”, the “TGFβ-induced MEOX1 expression” value [6] was “suppressed” and the “TGFβ-induced MEOX1 expression” value [7] was “suppressed”. For the same compound, the “potency as BET bromodomain inhibitor” value [8] was “potent inhibitor” and the “prevention and treatment of heart failure” value [9] was “can prevent and treat HF”.
